From patent publication US20030235811A1, “Crystallized mammalian carboxylesterase polypeptide and screening methods employing same” (priority 2002, published 2003)

Tests used:
[1] = humans; cited from earlier work
wild type rCE = target: T1, wild type rCE (Oryctolagus cuniculus, UniProt P12337); test: CD thermal denaturation of wild type rCE in the presence of 4PP; format: binding, rabbit; settings: 1 mM βME
T1 construct: made in house; host or cells: Spodoptera frugiperda Sf21 cells, baculovirus, secreted into the medium
T1 sequence (P12337 19-559 limits assumed): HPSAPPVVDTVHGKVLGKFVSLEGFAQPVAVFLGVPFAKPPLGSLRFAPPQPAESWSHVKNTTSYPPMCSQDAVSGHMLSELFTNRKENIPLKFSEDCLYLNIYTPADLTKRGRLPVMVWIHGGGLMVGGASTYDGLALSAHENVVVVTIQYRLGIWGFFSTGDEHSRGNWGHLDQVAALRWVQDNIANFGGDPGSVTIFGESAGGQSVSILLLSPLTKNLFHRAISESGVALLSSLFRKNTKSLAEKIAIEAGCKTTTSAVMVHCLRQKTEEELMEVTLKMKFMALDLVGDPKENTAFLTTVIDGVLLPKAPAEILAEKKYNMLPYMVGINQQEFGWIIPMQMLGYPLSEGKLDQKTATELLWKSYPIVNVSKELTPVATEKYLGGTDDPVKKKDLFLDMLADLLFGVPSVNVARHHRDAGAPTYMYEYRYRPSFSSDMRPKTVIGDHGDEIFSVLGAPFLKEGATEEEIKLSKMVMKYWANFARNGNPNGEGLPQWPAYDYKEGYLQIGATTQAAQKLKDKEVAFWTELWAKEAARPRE
Experimental: (§1) Experiments were conducted by monitoring rCE denaturation in an Applied Photophysics PISTAR-180™ CD spectropolarimeter (Applied Photophysics, Surrey, United Kingdom). Deglycosylated rCE was generated by an 18-hour treatment with 0.25 μM PNGase F (Hampton Research, Laguna Niguel, Calif., United States of America) at 37° C., which cleaves the complete high-mannose glycosyl group. Removal of the carbohydrate chains was confirmed by SDS-PAGE. Wild type protein was also heated to 37° C. for 18 hours before CD experiments. Wild type or deglycosylated rCE (0.15 mg ml^−1 (2.5 μM); in 10 mM phosphate buffer, pH 7.0, and 1 mM fresh beta-mercaptoethanol (βME) to eliminate the stabilizing effect of disulfide linkages) was treated with no 4PP or with 0.016 mM, 0.16 mM, 1.6 mM or 10 mM 4PP. The temperature was increased from 20 to 98° C. while monitoring the ellipticity at 222 nm. […]
(§2) To confirm the significance of the 4PP bound to the surface of rCE, thermal denaturation studies were performed using CD on both wild type and deglycosylated rCE. […] In the presence of fresh reducing agent (1 mM β-mercaptoethanol (βME)), thermal denaturation of wild type and deglycosylated rCE was monitored alone and in the presence of 10-(0.016 mM), 100-(0.16 mM), 1,000-(1.6 mM) and 6,000-fold (10 mM) molar excess 4PP (FIGS. 7-9). […]

deglycosylated rCE = target: T2, deglycosylated rCE (Oryctolagus cuniculus, UniProt P12337); test: CD thermal denaturation of deglycosylated rCE in the presence of 4PP; format: binding, rabbit
T2 construct: made in house; host or cells: Spodoptera frugiperda Sf21 cells, baculovirus, secreted; then PNGase F treatment
T2 sequence (P12337 19-559): T1 sequence (P12337 19-559 limits assumed)
Experimental: as §1, §2

hCE1 = hCE1 (Homo sapiens, UniProt P23141)
Experimental: A 62 kDa C-terminally-truncated form of human carboxylesterase 1 (hCE1; SEQ ID NO: 4) that lacks six C-terminal amino acids, allowing secretion of the expressed enzyme (baculovirus in Spodoptera frugiperda Sf21 cells) into the culture media, was employed. hCE1 was purified by preparative isoelectric focusing and size exclusion chromatography (BIO-GEL® P-100, Bio-Rad, Laboratories, Hercules, Calif.) from protein-free culture media. Purified hCE1 was concentrated to 5 mg ml^−1 in 20 mM HEPES pH 7.4, and crystallized in the presence of either 10 mM tacrine or 100 mM homatropine. […]
Diffraction data were collected at Stanford Synchrotron Radiation Laboratory (SSRL) beamline 9-1, and were processed and reduced using MOSFILM (Leslie, (1992), Joint CCP4+ESF-EAMCB Newsletter on Protein Crystallography, No. 26.). […] The structures of hCE1 were determined by molecular replacement using the structure of rabbit carboxylesterase (rCE; RCSB Protein ID No. 1K4Y; Bencharit et al., (2002) Nat.Struct.Biol. 9: 337), also an aspect of the present invention, as a search model (81% sequence identity). […] Manual adjustments and rebuilding were performed using the program O (Jones et al., (1991) Acta Crystallogr. A 47: 110-119) and σA-weighted electron density maps (Read, (1986) Acta Crystallogr. A 42: 140-149). […]

[2] = target: the molecule itself; test: X-ray crystal structure (self-association, homotrimer)
Experimental: Diffraction data were collected at Stanford Synchrotron Radiation Laboratory (SSRL) beamline 9-1, and were processed and reduced using MOSFILM (Leslie, (1992), Joint CCP4+ESF-EAMCB Newsletter on Protein Crystallography, No. 26.). Crystals were of space group P2₁, and contained six molecules in the asymmetric unit for both the tacrine and homatropine complexes. See FIG. 12, in which each hCE1 is depicted in a different color. The structures of hCE1 were determined by molecular replacement using the structure of rabbit carboxylesterase (rCE; RCSB Protein ID No. 1K4Y; Bencharit et al., (2002) Nat.Struct.Biol. 9: 337), also an aspect of the present invention, as a search model (81% sequence identity). Non-identical side chains were trimmed prior to rotation and translation function searches in AmoRe (Navaza & Saludjian, (1997) Methods Enzymol. 276A: 581-594). The structures were refined using torsion angle dynamics in CNS with the maximum likelihood function target, and included an overall anisotropic B-factor and a bulk solvent correction. […] Manual adjustments and rebuilding were performed using the program O (Jones et al., (1991) Acta Crystallogr. A 47: 110-119) and σA-weighted electron density maps (Read, (1986) Acta Crystallogr. A 42: 140-149). […]

Sequence of hCE1 (P23141 18-560 isoform P23141-3 limits assumed): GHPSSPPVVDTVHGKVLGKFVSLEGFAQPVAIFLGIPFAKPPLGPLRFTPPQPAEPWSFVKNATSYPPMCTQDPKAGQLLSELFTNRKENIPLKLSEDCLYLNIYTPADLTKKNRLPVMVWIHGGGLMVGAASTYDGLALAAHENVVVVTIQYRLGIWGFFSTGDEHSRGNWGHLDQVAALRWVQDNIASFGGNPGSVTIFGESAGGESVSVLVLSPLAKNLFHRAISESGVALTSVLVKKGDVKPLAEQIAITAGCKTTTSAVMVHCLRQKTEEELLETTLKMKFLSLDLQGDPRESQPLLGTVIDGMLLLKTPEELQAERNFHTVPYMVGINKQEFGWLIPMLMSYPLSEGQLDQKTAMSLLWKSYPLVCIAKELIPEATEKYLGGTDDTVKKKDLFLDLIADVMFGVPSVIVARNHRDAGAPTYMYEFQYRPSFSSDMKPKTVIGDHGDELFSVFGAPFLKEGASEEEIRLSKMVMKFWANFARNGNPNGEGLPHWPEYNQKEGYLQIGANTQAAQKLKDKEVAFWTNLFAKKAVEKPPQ

Molecule: CCc1c2c(nc3ccc(O)cc13)-c1cc3c(c(=O)n1C2)COC(=O)[C@]3(O)CC [SN-38]
- share of the SN-38 generated by activation of CPT-11 that makes it to the tumor [1]: ~2%

Molecule: C1CCN(C2CCNCC2)CC1 [4PP, 4-piperidino-piperidine]
- melting temperature (Tm) of wild type rCE (wild type rCE; 10- to 100-fold molar excess of 4PP (0.016-0.16 mM)): 51 °C
- melting temperature (Tm) of wild type rCE (wild type rCE; higher concentrations of 4PP (1.6 mM, 10 mM)): 54-55 °C
- effect on thermal stability of deglycosylated rCE (deglycosylated rCE; high concentrations of 4PP): stabilization occurs only with high concentrations
- effect on thermal stability of deglycosylated rCE (deglycosylated rCE; lower concentrations of 4PP): destabilize the enzyme

Molecule: Nc1c2c(nc3ccccc13)CCCC2 [tacrine, 1,2,3,4-tetrahydro-9-acridinamine]
- binding to hCE1 (hCE1): binds effectively

B1: human carboxylesterase 1 (hCE1), 62 kDa C-terminally-truncated form lacking six C-terminal amino acids (enzyme)
chain: GHPSSPPVVDTVHGKVLGKFVSLEGFAQPVAIFLGIPFGKPPLGPLRFTPPQPAEPWSFVKNATSYPPMCTQDPKAGQLLSELFTNRKENIPLKLSEDCLYLNIYTPADLTKKNRLPVMVWIHGGGLMVGAASTYDGLALAAHENVVVVTIQYRLGIWGFFSTGDEHSRGNWGHLDQVAALRWVQDNIASFGGNPGSVTIFGESAGGESVSVLVLSPLAKNLFHRAISESGVALTSVLVKKGDVKPLAEQIAITAGCKTTTSAVMVHCLRQKTEEELLETTLKMKFLSLDLQGDPRESQPLLGTVIDGMLLLKTPEELQAERNFHTVPYMVGINKQEFGWLIPMLMSYPLSEGQLDQKTAMSLLWKSYPLVCIAKELIPEATEKYLGGTDDTVKKKDLFLDLIADVMFGVPSVIVARNHRDAGAPTYMYEFQYRPSFSSDMKPKTVIGDHGDELFSVFGAPFLKEGASEEEIRLSKMVMKFWANFARNGNPNGEGLPHWPEYNQKEGYLQIGANTQAAQKLKDKEVAFWTNLFAKKAVEKPPQT
modifications: N-linked glycans (added to the model in refinement; positions not stated for the crystallised protein)
notes: Expressed by baculovirus in Spodoptera frugiperda Sf21 cells and secreted into the culture media; crystallised with tacrine or homatropine; also called human CE; human CE1
- binding result [2]: binds
